≈ marks a conversion by molar mass, not a printed value. Calls of active or inactive are those of the source. No cut-off for these calls is given here.
Legend:
[1] = biological target: Polyamine deacetylase HDAC10 (Homo sapiens, UniProt Q969S8); assay: Inhibition of human HDAC10 using Acetyl-Lys (trifluoroacetyl)-AMC) as substrate incubated for 2 hrs by fluorescence assay
[2] = test system: KMS-12-BM; assay: Effect on human KMS-12-BM cells assessed as increase in H3K9Me2 level at 2.5 to 10 uM incubated for 24 hrs by Western blot analysis; format: functional, cell-based
[3] = organism: Homo sapiens; assay: Selectivity ratio of IC50 for inhibition of human HDAC1 to IC50 for inhibition of human HDAC3
[4] = test system: MDA-MB-231; assay: Antiproliferative activity against human MDA-MB-231 cells incubated for 72 hrs by MTT assay; format: functional, cell-based; conditions: MDA-MB-231, 72 h
[5] = test system: Plasmodium falciparum; assay: microbe, parasite or virus in culture; format: functional, organism-based; conditions: 3D7, 48 h
Description: Antimalarial activity against ring stage Plasmodium falciparum 3D7 incubated for 48 hrs by Hoechst 33342 staining based fluorescence based assay

[6] = test system: KMS-12-BM; assay: Effect on human KMS-12-BM cells assessed as increase in cleaved PARP level at 10 uM incubated for 24 hrs by Western blot analysis; format: functional, cell-based
[7] = Intrinsic clearance in male rat liver microsomes at 3 uM preincubated for 5 mins followed by NADPH addition and measured up to 45 mins by LC-MS/MS analysis; format: ADME, Microsome; conditions: read-out: CLH
[8] = test system: MDA-MB-231; assay: Induction of apoptosis in human MDA-MB-231 cells assessed as early apoptotic cells at 9 uM incubated for 48 hrs by Annexin V-FITC/PI staining by flow cytometric analysis (reference value: 5%); format: functional
[9] = test system: MDA-MB-231; assay: Induction of apoptosis in human MDA-MB-231 cells assessed as late apoptotic cells at 3 uM incubated for 48 hrs by Annexin V-FITC/PI staining by flow cytometric analysis (reference value: 3%); format: functional
[10] = Intrinsic clearance in mouse liver microsomes at 3 uM preincubated for 5 mins followed by NADPH addition and measured up to 45 mins by LC-MS/MS analysis; format: ADME, Microsome; conditions: read-out: CLH
[11] = Kinetic solubility in pH 7.4 universal buffer measured after 3 hrs by UV spectroscopic analysis; format: physicochemical; conditions: read-out: Kinetic_solubility
[12] = biological target: Histone deacetylase 8 (Homo sapiens, UniProt Q9BY41); assay: Inhibition of human HDAC8 using Arg-His-Lys (Ac)-Lys (Ac) as substrate incubated for 2 hrs by fluorescence assay
[13] = Inhibition of human MLL1 complex using core histone as substrate incubated for 1 hr in presence of [3H]-SAM by filter binding method
[14] = test system: MDA-MB-231; assay: Induction of apoptosis in human MDA-MB-231 cells assessed as necrotic cells at 9 uM incubated for 48 hrs by Annexin V-FITC/PI staining by flow cytometric analysis (reference value: 15%); format: functional
[15] = biological target: Histone deacetylase 7 (Homo sapiens) (UniProt Q8WUI4); assay: Inhibition of human HDAC7 at 10 uM using Acetyl-Lys (trifluoroacetyl)-AMC) as substrate incubated for 2 hrs by fluorescence assay
[16] = biological target: Histone deacetylase 5 (Homo sapiens) (UniProt Q9UQL6); assay: Inhibition of human HDAC5 at 10 uM using Acetyl-Lys (trifluoroacetyl)-AMC) as substrate incubated for 2 hrs by fluorescence assay relative to control
[17] = biological target: Histone-lysine N-methyltransferase SUV39H2 (Homo sapiens) (UniProt Q9H5I1); assay: Inhibition of human SUV39H2 at 100 uM using histone H3 as substrate incubated for 1 hr in presence of [3H]-SAM by filter binding method relative to control
[18] = organism: Homo sapiens; assay: Selectivity ratio of IC50 for human HDAC2 to IC50 for human HDAC6
[19] = test system: TAMH; assay: Cytotoxicity against TAMH cells incubated for 24 hrs by CellTiter-Glo Cell Viability Assay; format: cell-based; conditions: Mus musculus
[20] = Selectivity index, ratio of EC50 for human MDA-MB-231 cells to IC50 for ring stage Plasmodium falciparum 3D7; format: functional; design: reference not given here
[21] = Selectivity index, ratio of EC50 for human MDA-MB-231 cells to IC50 for ring stage Plasmodium falciparum K1; format: functional; design: reference not given here
[22] = Effective permeability of the compound at pH 7.4 measured after 16 hrs by PAMPA assay; format: ADME; conditions: read-out: Peff
[23] = test system: MDA-MB-231; assay: Induction of apoptosis in human MDA-MB-231 cells assessed as early apoptotic cells at 3 uM incubated for 48 hrs by Annexin V-FITC/PI staining by flow cytometric analysis (reference value: 5%); format: functional
[24] = Genotoxicity in Salmonella typhimurium TA100 in presence of S9 fraction incubated for 48 hrs by Ames test relative to control; format: toxicity, subcellular; conditions: salmonella enterica subsp. enterica serovar typhimurium, s9, 48 h

Histone deacetylase 5 (Homo sapiens), sequence (Q9UQL6 whole entry): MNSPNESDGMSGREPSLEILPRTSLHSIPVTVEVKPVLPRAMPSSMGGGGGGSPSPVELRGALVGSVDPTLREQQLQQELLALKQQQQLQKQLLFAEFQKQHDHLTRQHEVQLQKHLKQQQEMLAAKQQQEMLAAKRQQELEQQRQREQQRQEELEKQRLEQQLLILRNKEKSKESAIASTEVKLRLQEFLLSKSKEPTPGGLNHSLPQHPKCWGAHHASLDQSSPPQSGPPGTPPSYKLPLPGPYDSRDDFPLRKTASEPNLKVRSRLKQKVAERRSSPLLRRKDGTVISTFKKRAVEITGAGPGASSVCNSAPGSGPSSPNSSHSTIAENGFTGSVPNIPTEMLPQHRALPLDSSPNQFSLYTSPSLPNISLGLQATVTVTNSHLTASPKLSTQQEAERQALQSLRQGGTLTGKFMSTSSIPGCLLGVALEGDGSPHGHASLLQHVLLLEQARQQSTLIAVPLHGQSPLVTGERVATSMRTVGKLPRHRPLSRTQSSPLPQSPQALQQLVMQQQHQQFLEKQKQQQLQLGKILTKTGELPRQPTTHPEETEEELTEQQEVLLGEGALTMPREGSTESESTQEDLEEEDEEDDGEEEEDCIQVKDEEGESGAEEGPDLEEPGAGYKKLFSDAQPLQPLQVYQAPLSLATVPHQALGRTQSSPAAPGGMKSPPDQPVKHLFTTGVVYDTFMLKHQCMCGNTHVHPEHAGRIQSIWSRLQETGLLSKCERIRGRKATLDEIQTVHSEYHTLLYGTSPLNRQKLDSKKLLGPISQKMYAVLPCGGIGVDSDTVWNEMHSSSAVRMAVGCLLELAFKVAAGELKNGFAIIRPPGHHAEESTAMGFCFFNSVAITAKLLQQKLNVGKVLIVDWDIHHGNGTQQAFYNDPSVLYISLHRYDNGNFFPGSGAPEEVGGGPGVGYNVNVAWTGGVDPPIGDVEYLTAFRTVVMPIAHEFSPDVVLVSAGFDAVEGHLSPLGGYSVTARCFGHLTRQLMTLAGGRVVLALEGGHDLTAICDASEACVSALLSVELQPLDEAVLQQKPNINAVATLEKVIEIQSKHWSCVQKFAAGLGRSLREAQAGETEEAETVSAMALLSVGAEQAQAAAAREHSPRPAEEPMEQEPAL
Histone deacetylase 7 (Homo sapiens), sequence (Q8WUI4 whole entry): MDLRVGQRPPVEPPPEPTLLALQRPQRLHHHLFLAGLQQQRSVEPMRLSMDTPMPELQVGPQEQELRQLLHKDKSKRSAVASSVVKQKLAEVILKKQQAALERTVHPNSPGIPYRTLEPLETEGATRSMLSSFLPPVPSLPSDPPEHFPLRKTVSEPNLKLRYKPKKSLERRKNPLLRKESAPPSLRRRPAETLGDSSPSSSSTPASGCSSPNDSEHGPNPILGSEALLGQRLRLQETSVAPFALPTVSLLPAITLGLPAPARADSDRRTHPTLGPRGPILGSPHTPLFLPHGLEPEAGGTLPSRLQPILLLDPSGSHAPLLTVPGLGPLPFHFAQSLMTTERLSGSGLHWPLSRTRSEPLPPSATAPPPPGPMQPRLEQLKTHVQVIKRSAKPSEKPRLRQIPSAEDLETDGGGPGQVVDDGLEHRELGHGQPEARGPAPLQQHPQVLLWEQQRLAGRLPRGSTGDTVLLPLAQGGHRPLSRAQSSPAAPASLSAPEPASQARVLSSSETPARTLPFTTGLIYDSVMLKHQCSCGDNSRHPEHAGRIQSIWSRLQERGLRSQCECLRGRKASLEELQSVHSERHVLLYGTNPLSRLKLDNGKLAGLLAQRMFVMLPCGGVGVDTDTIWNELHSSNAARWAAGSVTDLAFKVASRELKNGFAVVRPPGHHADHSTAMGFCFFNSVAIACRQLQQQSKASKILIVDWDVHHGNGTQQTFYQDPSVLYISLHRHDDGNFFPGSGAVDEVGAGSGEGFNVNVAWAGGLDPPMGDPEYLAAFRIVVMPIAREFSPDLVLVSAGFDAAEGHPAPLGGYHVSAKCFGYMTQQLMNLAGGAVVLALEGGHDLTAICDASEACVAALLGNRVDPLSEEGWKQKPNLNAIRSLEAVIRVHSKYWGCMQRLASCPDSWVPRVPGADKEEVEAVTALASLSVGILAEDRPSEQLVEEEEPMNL
Histone-lysine N-methyltransferase SUV39H2 (Homo sapiens), sequence (Q9H5I1 whole entry): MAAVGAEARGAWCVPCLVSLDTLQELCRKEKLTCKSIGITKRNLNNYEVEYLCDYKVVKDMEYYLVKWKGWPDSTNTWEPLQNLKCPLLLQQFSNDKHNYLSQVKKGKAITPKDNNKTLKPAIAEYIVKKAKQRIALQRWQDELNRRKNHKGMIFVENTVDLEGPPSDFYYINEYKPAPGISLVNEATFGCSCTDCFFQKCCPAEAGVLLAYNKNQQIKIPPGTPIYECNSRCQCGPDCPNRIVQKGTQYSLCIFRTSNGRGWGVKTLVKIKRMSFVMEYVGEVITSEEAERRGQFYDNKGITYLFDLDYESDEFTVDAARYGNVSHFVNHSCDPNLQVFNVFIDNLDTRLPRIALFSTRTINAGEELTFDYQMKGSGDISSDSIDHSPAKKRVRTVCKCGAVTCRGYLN
Histone deacetylase 8, sequence (Q9BY41 whole entry): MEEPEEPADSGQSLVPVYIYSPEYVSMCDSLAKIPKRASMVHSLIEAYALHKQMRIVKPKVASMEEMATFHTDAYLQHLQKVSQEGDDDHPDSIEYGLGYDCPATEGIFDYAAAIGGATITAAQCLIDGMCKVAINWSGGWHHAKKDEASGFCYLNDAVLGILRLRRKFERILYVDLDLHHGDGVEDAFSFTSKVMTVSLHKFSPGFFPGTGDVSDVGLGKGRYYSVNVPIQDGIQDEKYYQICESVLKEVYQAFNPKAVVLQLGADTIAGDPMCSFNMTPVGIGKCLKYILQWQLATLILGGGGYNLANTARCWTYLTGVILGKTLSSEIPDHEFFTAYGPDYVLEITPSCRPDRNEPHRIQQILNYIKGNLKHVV
Polyamine deacetylase HDAC10, sequence (Q969S8 whole entry): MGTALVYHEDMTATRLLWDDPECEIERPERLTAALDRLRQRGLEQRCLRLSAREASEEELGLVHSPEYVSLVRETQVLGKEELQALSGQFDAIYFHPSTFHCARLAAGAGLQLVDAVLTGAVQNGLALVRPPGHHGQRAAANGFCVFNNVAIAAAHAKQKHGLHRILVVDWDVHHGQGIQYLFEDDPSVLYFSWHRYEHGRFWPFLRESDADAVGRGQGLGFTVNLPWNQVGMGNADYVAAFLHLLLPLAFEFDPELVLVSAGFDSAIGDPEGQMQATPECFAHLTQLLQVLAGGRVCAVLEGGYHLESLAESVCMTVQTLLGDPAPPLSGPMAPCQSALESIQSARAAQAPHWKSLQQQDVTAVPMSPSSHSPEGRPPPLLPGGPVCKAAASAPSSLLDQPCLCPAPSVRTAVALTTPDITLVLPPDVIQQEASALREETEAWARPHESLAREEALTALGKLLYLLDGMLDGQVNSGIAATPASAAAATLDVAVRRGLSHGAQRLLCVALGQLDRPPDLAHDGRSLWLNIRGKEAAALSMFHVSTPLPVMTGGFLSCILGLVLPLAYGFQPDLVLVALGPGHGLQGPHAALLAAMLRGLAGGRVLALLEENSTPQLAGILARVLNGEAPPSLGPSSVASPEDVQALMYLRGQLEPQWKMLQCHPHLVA

## COc1ccc(CN2CCC(Nc3nc(Nc4ccc(NC(=O)CCCCCCC(=O)NO)cc4)nc4cc(OC)c(OC)cc34)CC2)cc1
[1]
  IC50: 2.69 µM
[2]
  Activity: Active
[3]
  Ratio IC50: 26 to 33
[4]
  EC50: 6.3 µM
[5]
  IC50: 0.145 µM
[6]
  Activity: Active
[7]
  microsomal CLint at 3 µM: 16.3 µL/min/mg
[8]
  Activity: 24%
[9]
  Activity: 15%
[10]
  microsomal CLint at 3 µM: 52.2 µL/min/mg
[11]
  solubility kinetic at 3 h: 4.6 µM (≈ 3.15 µg/mL)
[12]
  IC50: 1.26 µM
[13]
  EC50: 158 µM
[14]
  Activity: 8%
[15]
  inhibition: inactive
[16]
  inhibition: 25%
[17]
  inhibition: inactive
[18]
  Ratio IC50: 435
[19]
  EC50: 29 µM
[20]
  Selectivity Index: 43
[21]
  Selectivity Index: 12
[22]
  Papp at 16 h: 7.9 ×10⁻⁶ cm/s
[23]
  Activity: 23%
[24]
  Activity: Non-Toxic

Source: ChEMBL document CHEMBL4311997, “Discovery of a potent histone deacetylase (HDAC) 3/6 selective dual inhibitor” (Eur J Med Chem, 2019)
